Several values for one entry are separate records, joined by “and”; a condition that tells them apart may be missing. Identical values can stand only once.

The target in assay [1] is T1, hCB2R (Homo sapiens (Human), UniProt P34972). The assay is described as follows: [35S]GTPγS binding assay, hCB2R CHO cell membranes. The following applies: for functional activity at hCB2R (agonist / inverse agonist): [35S]GTPγS binding. It is filed as biochemical. The procedure:
Functional Characterization.
The method used for measuring agonist-stimulated binding of [^35S]GTPγS was based on a described protocol. The assays were carried out with GTPγS assay buffer (50 mM Tris HCl (pH 7.4), 0.2 mM EGTA, 9 mM MgCl2, 150 mM NaCl, 1 mg/ml BSA). Briefly, membranes (5 μg protein) were incubated in assay buffer containing 100 μM GDP, 0.05 nM [^35S]GTPγS, test compounds at various concentrations in siliconized glass tubes. Bound ligand was separated from free ligand by vacuum filtration. Nonspecific binding was determined using 10 μM GTPS. Basal binding was assayed in the absence of the ligand and in the presence of GDP.

For assay [2], the system named is zymosan-induced hyperalgesia. Briefly: von Frey nociceptive filament assay after zymosan (5b, 5d, CBD). It is filed as in vivo, mouse. The procedure: (§1) Cannabidiol (CBD), a major constituent of Cannabis, resembles fenchone derivatives in structure. It has powerful anti-inflammatory and anti-anxiety properties and therefore it is used as a positive control. […] In accordance with these findings, the anti-nociceptive effect, as determined by the von Frey monofilament assay peaked at 6 h (p<0.01) (FIG. 10C).
(§2) To induce inflammation, 40 μL of 1.5% (w/v) zymosan A (Sigma) suspended in 0.9% saline was injected into the sub-planter surface of the right hind paw of the mice. Immediately after zymosan injection, fenchone derivative was injected intraperitoneally (i.p.) after the compounds were dissolved in 0.1 mL vehicle containing ethanol:Cremophore:saline at a ratio of 1:1:18. Control mice were injected with the vehicle only. After 2, 6 and 24 hrs, paw swelling and pain perception were measured.
(§3) The hyperalgesia was evaluated by the paw withdrawal von Frey test at 2, 6, and 24 hrs following injections of zymosan and/or the test compounds. […] In this study, only 1.4-60 g corresponding to 4.17 to 5.88 log of force was used, to test the mouse sensitivity to a mechanical stimulus on the swollen paw. The measurements were performed in a quiet room. Before paw pain measurements, the animals were held for 10 sec. The trained investigator applied the filament to the central area of the hind paw with gradual increasing size. The test consisted of poking the middle of the hind paw to provoke a flexion reflex followed by a clear flinch response after paw withdrawal. Each one of the von Frey filaments was applied for approximately 3-4 s to induce the end-point reflex. The first testing was done by using the force filament of 1.4 g. If there was no withdrawal response, the next higher stimulus was tried. The mechanical threshold force (in grams (g)) was defined as the lowest force imposed by two von Frey monofilaments of various sizes, required to produce a paw retraction. The untreated left hind paw served as a control.

The test system of assay [3] is zymosan-induced paw swelling. Briefly: zymosan mouse paw inflammatory pain model, paw swelling, with or without CB2 antagonists. As to conditions: 10 mg/kg AM630 with 1D, 24 h. It is filed as in vivo. How it is done:
(§4) To induce inflammation, 40 μL of 1.5% (w/v) zymosan A (Sigma) suspended in 0.9% saline was injected into the sub-planter surface of the right hind paw of the mice. Immediately after zymosan injection, antagonists were injected intraperitoneally (IP) and after 30 minutes, the fenchone derivatives dissolved in 0.1 mL vehicle containing ethanol:Cremophore:saline at a ratio of 1:1:18 were injected. Control mice were injected with the vehicle only. After 2, 6, and 24 hrs, paw swelling, and pain perception were measured.
as §3, with “Specifically, measurement of Oedema Formation was assessed by monitoring paw swelling via calibrated calipers (0.01 mm), 6 and 24 hrs following injections of zymosan alone and/or the test compounds. Pain hyperalgesia” for “The hyperalgesia”, “at” for “at 2,”, “24 h” for “24 hrs”

Assay [4] has as its system zymosan-induced hyperalgesia. The assay is described as follows: zymosan mouse paw inflammatory pain model, von Frey test, with or without CB2 antagonists. As to conditions: addition of AM630, 24 h. It counts as in vivo. How it is done:
as §4
as §3, with “Specifically, measurement of Oedema Formation was assessed by monitoring paw swelling via calibrated calipers (0.01 mm), 6 and 24 hrs following injections of zymosan alone and/or the test compounds. Pain hyperalgesia” for “The hyperalgesia”, “at” for “at 2,”, “24 h” for “24 hrs”

The next assay deals with TNFα. The assay is described as follows: serum TNFα ELISA 24 h after zymosan injection. It is filed as in vivo, mouse. The following applies: AM630 added to 1D. The procedure: Blood was collected 24 h after zymosan injection, and the sera were assayed for TNFα using a mouse TNFα ELISA kit (R&D Systems, Minneapolis, MN, USA), according to the manufacturer's instructions.
(In general: ELISA stands for enzyme-linked immunosorbent assay.)

For assay [5], the system named is zymosan-induced swelling of hind paw. Briefly: zymosan-induced hind paw swelling in mice (5b, 5d, CBD). It counts as in vivo, mouse. The procedure:
as §1, §2
The paw swelling (thickness) was measured by calibrated calipers (0.01 mm), 2, 6 and 24 hrs following injections of zymosan alone or Fenchone derivatives.

Another assay deals with mCB1R (Mus musculus (Mouse), UniProt P47746). The assay is described as follows: [3H]CP-55,940 competition displacement binding, crude membranes from mouse brain. As to conditions: displacement of [3H]CP-55,940; NB = No binding detected at concentrations up to 10 μM; read-out: Ki (nM) mCB1R. The procedure:
(§5) Affinity for Cannabinoid Receptors. The compounds were further characterized using a radioligand binding assay to determine their affinities for CB1R and CB2R based on each test compound's ability to displace the radiolabeled CB1R/CB2R agonist CP-55,940 from membranes prepared from a mouse brain (a source of CB1R) and membranes of cells expressing the human CB2R. […] Therefore, the compounds were assayed using membranes from CHO-K1 cells expressing the human CB2R (hCB2R).
(§6) Membranes from cells expressing human CB2R were purchased from Charles River, (Cat #A308; Ohio, US). Solutions of test compounds ranging from 0.1 nM to 10 mM were prepared in DMSO. The desired amount of membrane preparation was diluted with ice-cold assay buffer (50 mM Tris-HCl, 2.5 mM EDTA, 5 mM MgCl2, 0.1% BSA, pH 7.4) and was vortexed. […] The assays were incubated for 90 minutes at 30° C. and then immediately filtered on WHATMAN GF/B FilterPaper (Fired) using a Brandel M-24R Harvester followed by six washes with ice cold wash buffer (50 mM Tris-HCl, 2.5 mM EDTA, 5 mM MgCl2, 0.1% BSA, pH 7.4). Radioactivity was detected by adding the FilterPaper directly to the ULTIMA GOLD scintillation cocktail (PerkinElmer), incubation at 20° C. for 60 min and then counted using a Tri-Carb 4910TR liquid scintillation counter.

Assay [6] deals with T1, hCB2R. Briefly: [3H]CP-55,940 competition displacement binding, membranes of CHO-K1 cells expressing human CB2R. How it is done: as §5, §6
In assay [7] the test system is medial meniscal tear (MMT) post-traumatic OA. Briefly: rat medial meniscal tear (MMT) model, body weight and dynamic weight bearing. It counts as in vivo. As to conditions: FGF18 60 μg/mL IA. The procedure: Initially, the required amount of HU308 dissolved in ethanol followed by addition of […] with vigorous mechanical agitation to form viscous micelle solution. Finally, the micelle solution was diluted in ice cold saline for injection or culture assays. Vehicle solution consisted of ethanol, cremophor and saline at 1:1:18 ratio. For intra-articular (IA) dosing 50 μL was injected into the tibiofemoral joint, at two doses; 8 and 24 μg/mL. Vehicle control contained 1:1:18 ethanol/Cremophor/saline, while positive control was of IA administered 60 μg/mL FGF-18 (R&D Systems, catalogue No. 8988-F18-050, lot No. BVE0521071) for IA dosing at 50 μL/knee.
(§7) The rat OA model employed was surgically-induced medial meniscal tear (MMT), wherein rats were anesthetized with Isoflurane (VetOne, catalogue No. 502017), and the right knee area was prepared for surgery. A skin incision was made over the medial aspect of the knee, and the medial collateral ligament was exposed by blunt dissection and then transected. The medial meniscus was cut through the full thickness to simulate a complete tear. Skin and subcutis were closed with 4-0 Coated Vicryl (polyglactin 910) Violet Braided Suture (Ethicon, catalogue No. J399H), and slight hand pressure was applied to the wound for approximately 3 minutes for hemostasis. Subcutaneous (SC) dose of buprenorphine (0.05 mg/kg) administered after the animal awakened post-surgery. Rats were weighed daily on study days −1 through 7 and again on days 14, 21, and 28 (prior to necropsy). […] The animals were euthanized for necropsy 28 days post-surgery, following Isoflurane anesthesia, and bled to exsanguination followed by bilateral pneumothorax.

Assay [8] has the same test system. Briefly: rat MMT model, histopathology of medial tibial joint 28 days post MMT. It is filed as in vivo. As to conditions: FGF18 60 μg/mL IA. How it is done:
as §7
Right knees were collected from all animals and trimmed of muscle and patellae. The trimmed joints were placed in 10% neutral buffered formalin (NBF) for histologic processing and evaluation. Samples were fixed for 3 days in 4% paraformaldehyde and decalcified for 21 days in 10% EDTA, pH=7.5. Then following dehydration in a graded series of ethanol washes, joints were embedded in paraffin and sectioned to 7 μm slices, following trimming off 1 mm until the tibiofemoral compartments are fully observed. Sections were obtained from each knee and stained with toluidine blue (0.04% in 0.2 M acetate buffer, Ph=4.0), based on a modified version of the methods used in Schmitz, et al. (2010), (11). Histopathology was carried out using an ocular micrometer. The following structural histological characterization was carried out:
Regional differences across the tibial plateau were taken into consideration by dividing each section into three zones: (1) outside, (2) middle, and (3) inside. In the surgical OA model, the outside (zone-1) and middle (zone-2) thirds are most severely affected, and milder changes are present on the inside third (zone 3). When zones were scored individually, scores were assigned based on percent area of the zone affected. General cartilage degeneration including chondrocyte death/loss, proteoglycan (PG) loss, and collagen loss or fibrillation. Zones were scored individually (0-5; 5 representing sever damage; SD3), and a sum of all three zones was calculated (termed “Total Joint scores”).
The zone related cartilage depth is calculated from the projected articular surface tot the tidemark. Reduced ratios embody less detected cartilage width vs projected cartilage with area, per zone.
Osteophyte thickness (tidemark to furthest point extending toward synovium) was measured and scored according to a range from 0-5, as in SD4.
Damage to the calcified cartilage layer and subchondral bone was scored using the criteria in SD5. Generally damage was considered as invagination of deep zone cartilage into the subchondral bone layer.
[…] Descriptions of other changes (typically fibrosis, or acute inflammation/neutrophil infiltration extending into the lateral compartment usually associated with IA treatments) were also provided, if present.

T1 sequence (P34972 whole entry): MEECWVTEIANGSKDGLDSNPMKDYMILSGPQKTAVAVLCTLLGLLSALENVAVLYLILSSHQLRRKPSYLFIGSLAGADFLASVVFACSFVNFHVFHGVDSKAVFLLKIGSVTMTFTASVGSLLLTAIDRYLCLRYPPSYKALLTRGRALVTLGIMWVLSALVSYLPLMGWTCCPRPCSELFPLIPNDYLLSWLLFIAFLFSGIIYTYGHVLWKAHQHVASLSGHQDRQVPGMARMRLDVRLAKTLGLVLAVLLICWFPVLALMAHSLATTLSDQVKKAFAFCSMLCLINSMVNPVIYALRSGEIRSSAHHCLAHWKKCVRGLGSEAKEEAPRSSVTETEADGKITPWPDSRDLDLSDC
mCB1R, sequence (P47746 whole entry): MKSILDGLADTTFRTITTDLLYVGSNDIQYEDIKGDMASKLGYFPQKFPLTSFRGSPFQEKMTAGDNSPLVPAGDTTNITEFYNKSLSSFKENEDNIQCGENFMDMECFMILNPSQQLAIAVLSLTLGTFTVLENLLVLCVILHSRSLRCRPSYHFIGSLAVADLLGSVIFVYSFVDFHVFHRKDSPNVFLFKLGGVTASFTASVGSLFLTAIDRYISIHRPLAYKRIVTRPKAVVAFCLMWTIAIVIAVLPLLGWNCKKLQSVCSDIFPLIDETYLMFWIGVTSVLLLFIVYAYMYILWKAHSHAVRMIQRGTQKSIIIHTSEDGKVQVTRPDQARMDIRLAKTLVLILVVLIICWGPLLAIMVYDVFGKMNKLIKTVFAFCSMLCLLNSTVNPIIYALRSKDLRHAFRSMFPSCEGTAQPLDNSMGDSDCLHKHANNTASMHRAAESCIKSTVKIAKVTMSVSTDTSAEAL

Take `CCCCCc1cc(O)c(C2(O)C3(C)CCC(C3)C2(C)C)c(OC)c1` (single isomer, unassigned) [Compound 5b, 2-(2′-hydroxy-6′-methoxy-4′-pentylphenyl)-1,3,3-trimethylbicyclo[2.2.1]heptan-2-ol]: the “functional activity at hCB2R (agonist / inverse agonist)” value on hCB2R [1] is recorded as “agonist”. Besides, the “anti-nociceptive effect (von Frey)” value in assay [2] (10 and 25 mg/kg ip, after 6 and 24 h) is recorded as “strong anti-nociceptive effects”.
Turning to `COc1ccc(C(=O)c2c(C)n(CCN3CCOCC3)c3cc(I)ccc23)cc1` [AM630, reference compound], the “effect of antagonist on the 1D-reduced swelling” value in [3] is “fully inhibited its effect”. Further, in assay [4], the “effect of antagonist on the 1D von Frey effect” value is given as “reversed”. Moreover, the “effect of antagonist on the 1D reduction of TNF-α” value in the assay on TNFα is given as “abolished”.
Regarding `C=C(C)[C@@H]1CCC(C)=C[C@H]1c1c(O)cc(CCCCC)cc1O` [CBD, Cannabidiol, reference compound], the “time at which the anti-nociceptive effect peaked (von Frey)” value in assay [2] (CBD positive control) is 6 h. Besides, the “inhibition of inflammation (paw swelling)” value is 40% in assay [5] (5 mg/kg ip, 6 h, FIG. 10A); 43% in assay [5] (5 mg/kg ip, 24 h, FIG. 10A); 58% in assay [5] (positive control in the 5d experiment (FIG. 10B), 6 h); 78% in assay [5] (positive control in the 5d experiment (FIG. 10B), 24 h).
As a reminder, the EC50 is the concentration giving half of the maximal effect. A higher EC50 goes with weaker potency. What is called Ki is the dissociation constant of the complex between target and ligand, obtained from inhibition or displacement. As for `CCCCCCC(C)(C)c1cc(O)c(C2(O)C3(C)CCC(C3)C2(C)C)c(OC)c1` (stereo not shown) [Compound 5d, 2-(2′-hydroxy-6′-methoxy-4′-(2″-methyloctan-2″-yl)phenyl)-1,3,3-trimethyl-bicyclo[2.2.1]heptan-2-ol], at hCB2R [1], the “functional activity at hCB2R (agonist / inverse agonist)” value was “agonist”. In addition, the EC50 on hCB2R [1] ([35S]GTPγS binding to hCB2R, two independent experiments in triplicate) stood at 14.8 nM. The “E(max) %” value on hCB2R [1] (percentage of HU-308 response at 1 μM) was 105.05%. Besides, the “anti-nociceptive effect (von Frey)” value in assay [2] (25 and 50 mg/kg ip, after 6 h) is “moderate anti-nociceptive effects”. The results for the Ki on mCB1R and on hCB2R [6] (displacement of [3H]CP-55,940) were 451 nM and 24.6 nM, respectively. Also, the mCB1R/hCB2R on hCB2R [6] (selectivity index from Ki values) came to 18.4. In addition, the “inhibition of inflammation (paw swelling)” value in assay [5] (25 mg/kg ip, 24 h) was 55% and 56%; in assay [5] (50 mg/kg ip, 2 h) it was 38%; in [5] (50 mg/kg ip, 6 h) it was 67%; in [5] (50 mg/kg ip, 24 h), 56%.
Consider “FGF18: positive control, IA administered 60 μg/mL FGF-18 (R&D Systems); anabolic effect to articular cartilage”, for which, in [7], the “cumulative area under the curves for dynamic weight bearing (DWB)” value is reported as “highest values”. Further, in assay [8], the “mean zonal depth ratios” value was “reduced depth ratios” and the “zone 3 cartilage degeneration score” value is given as “no beneficial effect”. Besides, the “total zonal cartilage degeneration scores” value in [8] (vs 1D low dose and Vehicle) is recorded as “significantly reduced degenerative scores”. Further, in [8] (vs all groups), the medial synovial scores result is “highest”; the “osteophyte measurements and scores” value was “significantly higher measurements and scores”. Moreover, the bone damage result in [8] (vs the 1D high dose) was “relatively reduced levels”.

The record behind these values is patent publication US20250002435A1, “ARYLATED FENCHONE DERIVATIVES, COMPOSITIONS COMPRISING THEM, PROCESSES FOR THEIR PREPARATION AND USES THEREOF” (priority 2021, published 2025).
